Experimental findings from US20050075335A1, “Pharmaceutical composition comprising n((1-n-butyl-4-piperidinyl)methyl)-3,4-dihydro-2h-(1,3)oxazino(3,2-a)indole-10-carboxamide or salt and process therefor comprising dry granulation” (priority 2002, published 2005) are described below.

Counter-ions that a name gives are not always drawn.

The first data set is described as follows: Aerated and tapped bulk density of SB-207266-A. Format: physicochemical. Particulars: SB-207266-A batches from Description 1.
As to `CCCCN1CCC(CNC(=O)c2c3n(c4ccccc24)CCCO3)CC1.Cl` [BDC-G-02C], the Aerated bulk density is 0.142 g/mL and the “Tapped bulk Density” value worked out at 0.300 g/mL.

Consider `CCCCN1CCC(CNC(=O)c2c3n(c4ccccc24)CCCO3)CC1.Cl` [BDC-G-03C], for which the Aerated bulk density was determined as 0.173 g/mL and the “Tapped bulk Density” value amounted to 0.339 g/mL.

`CCCCN1CCC(CNC(=O)c2c3n(c4ccccc24)CCCO3)CC1.Cl` [BDC-G-04C]: the Aerated bulk density was 0.146 g/mL and the “Tapped bulk Density” value was 0.310 g/mL.

`CCCCN1CCC(CNC(=O)c2c3n(c4ccccc24)CCCO3)CC1.Cl` [BDC-G-05C]: the Aerated bulk density was found to be 0.152 g/mL and the “Tapped bulk Density” value amounted to 0.308 g/mL.

Regarding `CCCCN1CCC(CNC(=O)c2c3n(c4ccccc24)CCCO3)CC1.Cl` [BDC-H-01C], the Aerated bulk density turned out to be 0.136 g/mL and the “Tapped bulk Density” value was 0.250 g/mL.

The same data set, now with this note: typical value, product of Description 2.
Turning to `CCCCN1CCC(CNC(=O)c2c3n(c4ccccc24)CCCO3)CC1` [SB-207266-A, N-[(1-^nbutyl-4-piperidinyl)methyl]-3,4-dihydro-2H-[1,3]-oxazino[3,2-a]indole-10-carboxamide hydrochloride], the Aerated bulk density result was “ca. 0.14 g/ml” and the Tapped bulk Density entry was “ca. 0.31 g/ml”.
